The values below come from US20220340597A1, “HEXAHYDRO-1H-PYRAZINO[1,2-A]PYRAZINE COMPOUNDS FOR THE TREATMENT OF AUTOIMMUNE DISEASE” (Hoffmann-La Roche Inc., priority 2019, published 2022).

Bounds are passed on as bounds.

The target in one data set is T1, human TLR7 (Homo sapiens, UniProt Q9NYK1).
T1 construct: host or cells: HEK293 (HEK-Blue hTLR7)
T1 sequence (Q9NYK1 27-1049): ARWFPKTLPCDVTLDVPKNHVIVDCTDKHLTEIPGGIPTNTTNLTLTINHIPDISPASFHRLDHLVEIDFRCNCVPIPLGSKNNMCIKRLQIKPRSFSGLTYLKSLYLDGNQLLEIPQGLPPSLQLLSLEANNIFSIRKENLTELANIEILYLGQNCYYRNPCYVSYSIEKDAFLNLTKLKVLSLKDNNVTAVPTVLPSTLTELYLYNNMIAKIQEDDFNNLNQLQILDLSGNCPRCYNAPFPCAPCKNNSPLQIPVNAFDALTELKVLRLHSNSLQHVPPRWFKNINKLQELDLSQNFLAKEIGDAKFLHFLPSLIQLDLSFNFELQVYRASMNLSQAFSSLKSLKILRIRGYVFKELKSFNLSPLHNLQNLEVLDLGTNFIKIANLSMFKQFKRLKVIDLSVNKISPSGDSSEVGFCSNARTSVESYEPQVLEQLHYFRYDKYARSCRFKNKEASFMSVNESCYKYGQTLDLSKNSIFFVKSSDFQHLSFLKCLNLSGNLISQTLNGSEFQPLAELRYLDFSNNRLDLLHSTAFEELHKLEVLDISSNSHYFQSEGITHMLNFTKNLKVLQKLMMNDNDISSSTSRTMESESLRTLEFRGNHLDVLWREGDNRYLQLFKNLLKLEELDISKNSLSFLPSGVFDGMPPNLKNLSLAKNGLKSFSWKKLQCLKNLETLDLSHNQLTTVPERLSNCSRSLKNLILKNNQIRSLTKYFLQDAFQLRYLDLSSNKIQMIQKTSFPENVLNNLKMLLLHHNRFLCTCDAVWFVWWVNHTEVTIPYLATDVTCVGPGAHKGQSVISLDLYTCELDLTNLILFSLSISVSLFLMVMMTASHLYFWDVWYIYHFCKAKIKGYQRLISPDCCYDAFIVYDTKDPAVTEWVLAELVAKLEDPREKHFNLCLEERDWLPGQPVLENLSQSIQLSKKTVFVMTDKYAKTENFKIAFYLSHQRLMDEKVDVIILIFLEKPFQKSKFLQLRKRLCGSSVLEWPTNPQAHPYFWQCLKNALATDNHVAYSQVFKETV
The experiment in a line: HEK293-Blue-hTLR-7 cells assay. Type of data set: cell-based. As to conditions: HEK293-Blue-hTLR7 cells, R848 stimulation, 20 hrs, SEAP reporter; read-out: HEK/hTLR7 IC50.

A further data set deals with T2, hERG channel (Homo sapiens, UniProt Q12809).
T2 construct: expressed in transfected cells; host or cells: CHO (Chinese hamster ovary), CHOhERG
T2 sequence (Q12809 whole entry): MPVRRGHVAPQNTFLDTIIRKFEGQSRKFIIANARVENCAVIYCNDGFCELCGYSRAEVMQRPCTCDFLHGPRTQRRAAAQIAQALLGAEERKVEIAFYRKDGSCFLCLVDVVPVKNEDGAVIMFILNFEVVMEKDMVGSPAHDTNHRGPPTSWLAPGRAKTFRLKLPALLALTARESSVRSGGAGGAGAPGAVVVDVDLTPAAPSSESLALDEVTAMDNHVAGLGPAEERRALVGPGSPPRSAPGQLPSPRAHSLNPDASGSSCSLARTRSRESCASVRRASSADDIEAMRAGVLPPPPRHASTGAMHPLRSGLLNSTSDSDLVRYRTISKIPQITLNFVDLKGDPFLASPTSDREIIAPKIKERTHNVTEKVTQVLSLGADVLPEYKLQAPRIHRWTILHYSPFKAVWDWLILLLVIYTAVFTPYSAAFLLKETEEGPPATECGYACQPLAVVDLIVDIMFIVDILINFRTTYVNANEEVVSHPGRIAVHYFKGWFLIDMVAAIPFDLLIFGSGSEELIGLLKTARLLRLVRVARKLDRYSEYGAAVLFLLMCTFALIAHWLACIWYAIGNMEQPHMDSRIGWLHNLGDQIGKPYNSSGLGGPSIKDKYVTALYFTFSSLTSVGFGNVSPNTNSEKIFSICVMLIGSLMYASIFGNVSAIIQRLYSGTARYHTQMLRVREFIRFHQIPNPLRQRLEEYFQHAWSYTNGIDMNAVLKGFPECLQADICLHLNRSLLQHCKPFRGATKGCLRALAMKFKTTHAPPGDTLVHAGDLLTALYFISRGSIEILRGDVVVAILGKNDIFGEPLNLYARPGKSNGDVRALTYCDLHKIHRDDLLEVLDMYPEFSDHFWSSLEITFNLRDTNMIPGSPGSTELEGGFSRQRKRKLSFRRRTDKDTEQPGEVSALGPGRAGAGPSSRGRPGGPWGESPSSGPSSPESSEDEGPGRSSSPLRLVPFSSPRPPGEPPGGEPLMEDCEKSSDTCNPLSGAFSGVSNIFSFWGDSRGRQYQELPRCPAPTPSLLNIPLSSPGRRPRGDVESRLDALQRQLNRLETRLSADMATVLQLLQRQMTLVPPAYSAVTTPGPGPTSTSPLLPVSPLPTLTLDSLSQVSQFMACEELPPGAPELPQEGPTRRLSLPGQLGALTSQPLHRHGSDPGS
Nature of the data set: hERG channel inhibition assay (patch-clamp, CHOhERG cells). Type of data set: cell-based. The conditions noted are these: for IC50 / IC20: CHOhERG cells, whole-cell patch-clamp; for IC20: human, CHO cells stably expressing hERG (CHOhERG); for hERG IC20/TLR7 IC50 / hERG IC20/TLR8 IC50 / hERG IC20/TLR9 IC50: safety ratio. In short, it runs like this:
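Whole-cell voltage-clamp recordings of IKhERG in CHO cells stably expressing human hERG, stimulated at 0.1 Hz. Compound applied at rising concentrations, each held 3–10 min to reach steady state; current amplitude and kinetics compared with pre-drug control set as 100%.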
For orientation: hERG is a cardiac potassium channel; its block is linked to QT prolongation.

Consider `[2H]c1ccc2c(N3C[C@@H]4CN(Cc5ccc(N6CC7CNCC(C6)O7)nc5C)CCN4[C@H](C)C3)ccc(C#N)c2n1` [Example 83, 5-[(4R,9aS)-4-methyl-8-[[2-methyl-6-(9-oxa-3,7-diazabicyclo[3.3.1]nonan-3-yl)-3-pyridyl]methyl]-3,4,6,7,9,9a-hexahydro-1H-pyrazino[1,2-a]pyrazin-2-yl]-2-deuterio-quinoline-8-carbonitrile], for which the IC50 at human TLR7 is 0.017 µM. Also, at hERG channel, the IC50 is more than 20 µM, the IC20 (commonly the concentration at which the effect reaches the 20% level) is more than 10 µM, the “hERG IC20/TLR7 IC50” value is more than 588 and the “hERG IC20/TLR8 IC50” value is listed as more than 1428. At hERG channel, the “hERG IC20/TLR9 IC50” value is given as more than 196.
`[2H]c1ccc2c(N3C[C@@H]4CN(Cc5ccc(N[C@H]6CNC[C@H]6F)nc5C)CCN4[C@H](C)C3)ccc(C#N)c2n1` [Example 82, 5-[(4R,9aS)-8-[[6-[[(3S,4R)-4-fluoropyrrolidin-3-yl]amino]-2-methyl-3-pyridyl]methyl]-4-methyl-3,4,6,7,9,9a-hexahydro-JH-pyrazino[1,2-a]pyrazin-2-yl]-2-deuterio-quinoline-8-carbonitrile]: on human TLR7, the IC50 was 0.012 µM. On hERG channel, the IC50 was more than 20 µM, the IC20 was more than 10 µM, the “hERG IC20/TLR7 IC50” value is listed as more than 833 and the “hERG IC20/TLR8 IC50” value is more than 3333. Moreover, the “hERG IC20/TLR9 IC50” value at hERG channel was more than 243.
As to `Cc1cc(N2CCNCC2)cnc1N1CCN2[C@@H](C1)CN(c1cc(=O)n(C)c3ncccc13)C[C@H]2C` [Example 93, 4-[(4R,9aR)-4-methyl-8-(3-methyl-5-piperazin-1-yl-2-pyridyl)-3,4,6,7,9,9a-hexahydro-1H-pyrazino[1,2-a]pyrazin-2-yl]-1-methyl-1,8-naphthyridin-2-one], the IC50 at human TLR7 came out at 0.01 µM. On hERG channel, the IC50 was more than 20 µM, the IC20 is more than 10 µM, the “hERG IC20/TLR7 IC50” value is on record as more than 1000 and the “hERG IC20/TLR8 IC50” value is on record as more than 163. For the same molecule, the “hERG IC20/TLR9 IC50” value on hERG channel is given as more than 53.
Turning to `[2H]c1ccc2c(N3C[C@@H]4CN(Cc5ccc(N6C[C@H]7NCCO[C@@H]7C6)nc5C)CCN4[C@H](C)C3)ccc(C#N)c2n1` [Example 98, 5-[(4R,9aS)-8-[[6-[(4aR,7aR)-3,4,4a,5,7,7a-hexahydro-2H-pyrrolo[3,4-b][1,4]oxazin-6-yl]-2-methyl-3-pyridyl]methyl]-4-methyl-3,4,6,7,9,9a-hexahydro-1H-pyrazino[1,2-a]pyrazin-2-yl]-2-deuterio-quinoline-8-carbonitrile], the IC50 on human TLR7 was determined as 0.024 µM. Also, at hERG channel, the IC50 was more than 20 µM, the IC20 was more than 10 µM, the “hERG IC20/TLR7 IC50” value is given as more than 416 and the “hERG IC20/TLR8 IC50” value is more than 1000. Besides, the “hERG IC20/TLR9 IC50” value at hERG channel was more than 172.
Regarding `C[C@@H]1CN(c2ccc(C#N)c3ncccc23)C[C@@H]2CN(Cc3ccc4c(c3)CNCC4)CCN21` (relative stereo) [Example 1], the IC50 on human TLR7 worked out at 0.017 µM. Also, on hERG channel, the IC50 was more than 20 µM, the IC20 was more than 10 µM, the “hERG IC20/TLR7 IC50” value was more than 588 and the “hERG IC20/TLR8 IC50” value is reported as more than 1000. Besides, at hERG channel, the “hERG IC20/TLR9 IC50” value is recorded as more than 172.
For the molecule `[2H]c1ccc2c(N3C[C@@H]4CN(Cc5ccc(N6C[C@@H]7C[C@H]6CN7)nc5C)CCN4[C@H](C)C3)ccc(C#N)c2n1` [Example 92, 5-[(4R,9aS)-8-[[6-[(1S,4S)-2,5-diazabicyclo[2.2.1]heptan-2-yl]-2-methyl-3-pyridyl]methyl]-4-methyl-3,4,6,7,9,9a-hexahydro-1H-pyrazino[1,2-a]pyrazin-2-yl]-2-deuterio-quinoline-8-carbonitrile], the IC50 at human TLR7 amounted to 0.006 µM. Moreover, at hERG channel, the IC50 is more than 20 µM, the IC20 is more than 10 µM, the “hERG IC20/TLR7 IC50” value is reported as more than 1666 and the “hERG IC20/TLR8 IC50” value is recorded as more than 1111. For the same molecule, the “hERG IC20/TLR9 IC50” value on hERG channel was more than 294.
